Assay results from paper PMC12544700, “Identification of a Small Secretoneurin Derivative That Inhibits CaMKIIδ Activity” (Journal of Cellular and Molecular Medicine, 2025).
Peptide text beside a SMILES is read from it. * marks the point of attachment. Biotin = O=C1N[C@H]2[C@H](CS[C@H]2CCCCC(=O)*)N1; Ahx = NCCCCCC(=O)O

Assays:
recombinant CaM = biological target: T1, recombinant CaM (Homo sapiens, UniProt P0DP23); assay: Calmodulin pull-down with peptides synthesised on cellulose membrane; format: binding; settings: peptide on cellulose membrane; 1 μg recombinant CaM, 1 mM CaCl2, overnight 4°C; immunoblot; Figure 3B
T1 construct: purchased Sigma Merck C4874
Method: To test for calmodulin (CaM) binding, recombinant CaM was pulled down after incubation with SN‐db‐short or a peptide representing the CaM binding site in CaMKII ([…], positive control). SN‐db‐short and the CaM‐binding peptide were synthesised in triplicates onto a cellulose membrane by a Multipep automated peptide synthesiser (CEM Corporation, Matthews, NC, USA). The specific spots of the membrane corresponding to SN‐db‐short or the positive control peptide were cut and placed into separate tubes. The membrane pieces were first rehydrated in 100% methanol and subsequently incubated with 1 μg of recombinant CaM (C4874, Sigma Merck) in CaMKII binding buffer supplemented with CaCl2 (50 mM Hepes, 150 mM NaCl, 15 mM MgCl2, 1 mM CaCl2, 0.1% Triton X‐100, 1% BSA) overnight at 4°C with rotation. […]
(§1) Lysates and immunoprecipitates were separated on 12% or 4%–15% Criterion TGX precast gels (5671044 and 5671084, Biorad, Hercules, CA, USA), blotted onto PVDF membranes (1704157 by Biorad or 03010040001 by Sigma Merck) and reversibly stained with Revert 700 Total Protein Stain (Li‐COR Biosciences, Lincoln, NE, USA). […] Blots were developed using ECL (RPN2236, GE Healthcare, Chicago, IL, USA) after four washing steps of 10 min in TBS‐t and the chemiluminescence signals were detected by Azure Biosystems 600 (Dublin, CA, USA). […] ImageJ [13] was used to quantify the blots.

human His‐CaMKIIδ‐T287D [1] = biological target: T2, human His‐CaMKIIδ‐T287D (Homo sapiens, UniProt Q13557, T287D); assay: CaMKII pull-down with biotinylated peptides on streptavidin beads; format: binding; settings: biotin‐SN‐db‐short vs biotin‐SN; immunoblot; Figure S2A, n = 8
T2 construct: Recombinant human His‐CaMKIIδ‐T287D and rat His‐CaMKIIδ‐T287D full‐length proteins; His; purchased Genscript Corp (custom made)
T2 sequence (Q13557 whole entry T287D): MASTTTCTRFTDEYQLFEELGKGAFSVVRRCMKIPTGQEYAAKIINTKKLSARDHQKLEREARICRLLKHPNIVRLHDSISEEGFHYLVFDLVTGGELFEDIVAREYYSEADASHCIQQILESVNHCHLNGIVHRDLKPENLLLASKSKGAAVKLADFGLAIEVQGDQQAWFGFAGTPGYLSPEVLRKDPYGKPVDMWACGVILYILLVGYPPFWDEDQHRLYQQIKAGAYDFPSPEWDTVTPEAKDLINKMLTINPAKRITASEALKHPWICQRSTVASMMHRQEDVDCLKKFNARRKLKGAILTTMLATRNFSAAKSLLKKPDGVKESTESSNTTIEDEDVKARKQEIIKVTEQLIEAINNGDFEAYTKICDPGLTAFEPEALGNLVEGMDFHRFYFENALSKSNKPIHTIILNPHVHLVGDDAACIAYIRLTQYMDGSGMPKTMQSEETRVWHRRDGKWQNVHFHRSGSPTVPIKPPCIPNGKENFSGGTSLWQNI
Method: In the CaMKII pull‐down assay, the biotinylated peptides (20 μL) were coupled to 50 μL of streptavidin magnetic beads (88816, Thermo Fisher) in PBS for 2 h at 4°C with rotation. The bead‐bound peptides were thereafter incubated with 1 μg of human His‐CaMKIIδ‐T287D in 300 μL of PBS or PBS with 1% BSA for 2 h at 4°C with rotation. The protein complexes attached to the beads were then washed three times in 300 μL of IP buffer (20 mM Hepes, pH 7.5, 150 mM NaCl, 1 mM EDTA, 1% Triton X‐100, supplemented with complete protease inhibitor cocktail and phosphatase inhibitor cocktail) or PBS. Samples were boiled in SDS loading buffer at 95°C for 5 min before western blot analysis.
as §1, with “blots. […]” for “blots.”

human His‐CaMKIIδ‐T287D [2] = biological target: T2, human His‐CaMKIIδ‐T287D; assay: ELISA-based binding to human His‐CaMKIIδ‐T287D; settings: biotin‐ahx‐SN‐db‐short; values relative to biotin‐ahx‐Scram; Figure S2B, n = 6
Method: A 96‐well microplate was coated with 1 μg/well of rat or human recombinant His‐CaMKIIδ‐T287D or CaMKIIδ fragments (custom made by Genscript) in 1× PBS overnight at 4°C with gentle tilting. Wells were washed with 1× PBS‐t (0.1% Tween‐20) and blocked with 0.5% gelatin (G‐1890 Gelatin type A, Sigma Merck, Darmstadt, Germany) or BSA (805095 30% BSA (Rinderalbumin 30%), Norsk Labex, Høvik, Norway) for 1 h at room temperature (RT), then incubated with 5 μL of biotinylated peptide (1 mM) for 2 h at 37°C with gentle tilting. The wells were then washed five times with 1× PBS‐t. To detect binding, the wells were incubated with a monoclonal anti‐biotin‐HRP conjugated antibody (1:5000 dilution, A‐0185, Sigma) for 30 min at RT. The washing steps were repeated, and the plate was incubated with the Ultra TMB solution (1‐step Ultra TMB‐ELISA Substrate Solution 34028, Thermo Fischer Scientific, Waltham, MA, USA) for 30 min at RT with gentle tilting. The reaction was stopped by adding 2 N HCl (100 μL), and the signal was measured at 450 nm by a plate reader (Hidex Sense Microplate Reader, Åbo, Finland). For the competition assay, 20 μL (1 mM) of T‐site binding peptides AKAP18δ‐N1, CN21 or CN27 (without any biotin tags) were incubated in the same well with 5 μL (1 mM) of SN biotinylated peptides. […]

In the case of `CC(C)C[C@H](NC(=O)[C@H](CCC(=O)O)NC(=O)[C@H](CCC(N)=O)NC(=O)[C@H](Cc1ccccc1)NC(=O)[C@H](Cc1ccccc1)NC(=O)[C@H](CO)NC(=O)[C@H](CCC(=O)O)NC(=O)[C@H](Cc1ccccc1)NC(=O)[C@@H](NC(=O)[C@H](C)NC(=O)[C@H](CC(C)C)NC(=O)[C@H](CO)NC(=O)[C@H](CCC(N)=O)NC(=O)[C@@H]1CCCN1C(=O)[C@@H](NC(=O)[C@H](Cc1ccc(O)cc1)NC(=O)[C@H](CCC(N)=O)NC(=O)[C@H](CCC(=O)O)NC(=O)CCCCCNC(=O)CCCC[C@@H]1SC[C@@H]2NC(=O)N[C@@H]21)[C@@H](C)O)[C@@H](C)O)C(=O)NCC(=O)N[C@@H](CCCCN)C(=O)O` [SN‐db‐short] ({Biotin-Ahx}-EQYTPQSLATFESFFQELGK-OH; N-terminus and C-terminus assumed), the “CaM binding (pull-down)” value (recombinant CaM) is reported as “no CaM was detected”, the “Binding to recombinant human CaMKIIδ‐T287D vs. native SN (pull down)” value (human His‐CaMKIIδ‐T287D [1]) is reported as “increased binding” and the “Binding to recombinant human CaMKIIδ‐T287D (ELISA)” value (human His‐CaMKIIδ‐T287D [2]) is reported as “increased binding”.
